Experiments:
[1] = tested on: Plasmodium falciparum; assay: In vitro inhibitory activity against chloroquine-sensitive Plasmodium falciparum D10 infected human red blood cells; assay type: functional, organism-based
[2] = tested on: Plasmodium falciparum; assay: In vitro inhibitory activity against chloroquine-resistant Plasmodium falciparum W-2 infected human erythrocytes; assay type: functional, organism-based
[3] = target: T1, Plasmepsin II (Plasmodium falciparum, UniProt P46925); assay: In vitro concentration required for inhibition of Plasmodium falciparum plasmepsin-2
[4] = tested on: Plasmodium falciparum; assay: Inhibition of Plasmodium falciparum; assay type: functional, organism-based
[5] = tested on: Plasmodium falciparum; assay: In vitro inhibitory activity against chloroquine-resistant Plasmodium falciparum W2 infected human erythrocytes at 9 uM; assay type: functional
[6] = tested on: Plasmodium falciparum; assay: In vitro inhibitory activity against chloroquine-sensitive Plasmodium falciparum D-10 infected human red blood cells at 9 uM; assay type: functional
[7] = target: T1, Plasmepsin II; assay: In vitro binding affinity towards Plasmodium falciparum plasmepsin-2

T1 sequence (P46925 whole entry): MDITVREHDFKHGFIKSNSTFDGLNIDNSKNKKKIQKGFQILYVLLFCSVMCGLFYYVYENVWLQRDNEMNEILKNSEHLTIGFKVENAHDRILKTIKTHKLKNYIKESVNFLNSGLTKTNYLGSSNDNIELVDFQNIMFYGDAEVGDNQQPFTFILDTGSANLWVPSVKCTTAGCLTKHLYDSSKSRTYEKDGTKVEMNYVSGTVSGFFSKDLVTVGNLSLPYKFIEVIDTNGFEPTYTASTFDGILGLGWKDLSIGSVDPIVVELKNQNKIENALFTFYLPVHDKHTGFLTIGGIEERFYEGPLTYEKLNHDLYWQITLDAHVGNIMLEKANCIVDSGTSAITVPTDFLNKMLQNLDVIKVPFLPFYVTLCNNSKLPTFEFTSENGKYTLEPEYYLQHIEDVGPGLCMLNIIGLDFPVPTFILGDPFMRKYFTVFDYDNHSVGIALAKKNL

Structure (SMILES)	IC50 [1] [nM]	IC50 [2] [nM]	IC50 [3] [nM]	further results
CCCCNC(=O)C[C@H](O)[C@H](CC(C)C)NC(=O)[C@@H](NC(=O)Cc1ccc(CC(=O)N[C@@H](CC(C)C)C(=O)N[C@@H](CCCCN)C(=O)NCCCC(C)Nc2cc(OC)cc3cccnc23)cc1)[C@H](C)CC (stereo partly specified)	5500	4200	135	–
CCCCNC(=O)C[C@H](O)[C@H](CC(C)C)NC(=O)[C@@H](NC(=O)c1ccc2cc(C(=O)N[C@H](CC(C)C)C(=O)N[C@H](CCCCN)C(=O)NCCCC(C)Nc3cc(OC)cc4cccnc34)ccc2c1)[C@H](C)CC (stereo partly specified)	6200	4700	1.51	–
COc1cc(NC(C)CCCNC(=O)[C@@H](N)CCCCN)c2ncccc2c1 (stereo partly specified)	–	–	> 1000	IC50 [4]: ~20000 nM
CCCCNC(=O)C[C@H](O)[C@H](CC(C)C)NC(=O)[C@@H](NC(=O)c1ccc(Oc2ccc(C(=O)N[C@H](CC(C)C)C(=O)N[C@H](CCCCN)C(=O)NCCCC(C)Nc3cc(OC)cc4cccnc34)cc2)cc1)[C@H](C)CC (stereo partly specified)	400	700	0.59	–
CCCCNC(=O)C[C@H](O)[C@H](CC(C)C)NC(=O)[C@@H](NC(=O)CCC(=O)N[C@@H](CC(C)C)C(=O)N[C@@H](CCCCN)C(=O)NCCCC(C)Nc1cc(OC)cc2cccnc12)[C@H](C)CC (stereo partly specified)	–	–	396	inhibition at 9 µM [5]: 40%; inhibition at 9 µM [6]: 20%
CCCCNC(=O)C[C@H](O)[C@H](CC(C)C)NC(=O)[C@@H](NC(=O)c1ccc2cc(C(=O)OCCCC(=O)N[C@H](CC(C)C)C(=O)N[C@H](CCCCN)C(=O)NCCCC(C)Nc3cc(OC)cc4cccnc34)ccc2c1)[C@H](C)CC (stereo partly specified)	3300	1000	9.6	–
CCCCNC(=O)C[C@H](O)[C@H](Cc1ccccc1)NC(=O)[C@@H](NC(=O)COc1ccc2ccccc2c1)[C@@H](C)CC	–	–	–	Ki [7]: 110 nM
CCCCNC(=O)C[C@H](O)[C@H](CC(C)C)NC(=O)[C@@H](NC(=O)c1ccc(Oc2ccc(C(=O)N[C@@H](CC(C)C)C(=O)O)cc2)cc1)C(C)CC (stereo partly specified)	–	–	123	IC50 [4]: ~17000 nM
CCCCNC(=O)C[C@H](O)[C@H](CC(C)C)NC(=O)[C@@H](NC(=O)COc1ccc2ccccc2c1)[C@@H](C)CC	–	–	–	Ki [7]: 180 nM

— ChEMBL document CHEMBL1137928, “Plasmepsin II inhibition and antiplasmodial activity of Primaquine-Statine 'double-drugs'” (Bioorg Med Chem Lett, 2004)
